Source: ChEMBL document CHEMBL3396981, “Synthesis and in vitro biological evaluation of 2-(phenylcarbamoyl)phenyl 4-substituted benzoates” (Bioorg Med Chem, 2015)
Converted amounts (≈) assume the structure as drawn.

Legend:
[1] = system: Mycobacterium tuberculosis; test: Antimycobacterial activity against Mycobacterium tuberculosis H37Rv 331/88 after 14 days by microdilution method; type: functional; conditions: H37Rv 331/88, 336 h
[2] = system: Mycobacterium tuberculosis; test: Antimycobacterial activity against Mycobacterium tuberculosis H37Rv 331/88 after 21 days by microdilution method; type: functional; conditions: H37Rv 331/88, 504 h
Mycobacterium avium [3] = test: Antimycobacterial activity against INH,RIF,OFX,EMB-resistant Mycobacterium avium 330/88 after 14 days by microdilution method; type: functional; conditions: 330/88, 336 h
Mycobacterium avium [4] = test: Antimycobacterial activity against INH,RIF,OFX,EMB-resistant Mycobacterium avium 330/88 after 21 days by microdilution method; type: functional; conditions: 330/88, 504 h
Mycobacterium kansasii [5] = test: Antimycobacterial activity against Mycobacterium kansasii 235/80 after 7 days by microdilution method; type: functional; conditions: 235/80, 168 h
Mycobacterium kansasii [6] = test: Antimycobacterial activity against Mycobacterium kansasii 235/80 after 14 days by microdilution method; type: functional; conditions: 235/80, 336 h
Mycobacterium kansasii [7] = test: Antimycobacterial activity against Mycobacterium kansasii 235/80 after 21 days by microdilution method; type: functional; conditions: 235/80, 504 h
Mycobacterium kansasii [8] = test: Antimycobacterial activity against Mycobacterium kansasii 6509/96 after 7 days by microdilution method; type: functional; conditions: 6509/96, 168 h
Mycobacterium kansasii [9] = test: Antimycobacterial activity against Mycobacterium kansasii 6509/96 after 14 days by microdilution method; type: functional; conditions: 6509/96, 336 h
Mycobacterium kansasii [10] = test: Antimycobacterial activity against Mycobacterium kansasii 6509/96 after 21 days by microdilution method; type: functional; conditions: 6509/96, 504 h
HepG2 [11] = test: Cytostatic activity against human HepG2 cells after 72 hrs by MTT assay; type: functional, cell-based; conditions: HepG2, 72 h
HepG2 [12] = test: Cytotoxicity against human HepG2 cells after 72 hrs by MTT assay; type: cell-based; conditions: HepG2, 72 h
[13] = Selectivity index, ratio of IC50 for human HepG2 cells to MIC for Mycobacterium tuberculosis; type: toxicity, cell-based; conditions: read-out: Selectivity Index
[14] = Selectivity index, ratio of IC50 for human HepG2 cells to MIC for atypical mycobacteria
Trichosporon asahii [15] = test: Antifungal activity against Trichosporon asahii 1188 after 24 hrs by broth microdilution method; type: functional; conditions: Trichosporon asahii, 1188, 24 h
Trichosporon asahii [16] = test: Antifungal activity against Trichosporon asahii 1188 after 48 hrs by broth microdilution method; type: functional; conditions: Trichosporon asahii, 1188, 48 h

| Compound | MIC [1] | MIC [2] | MIC (Mycobacterium avium [3]) | MIC (Mycobacterium avium [4]) | MIC (Mycobacterium kansasii [5]) | MIC (Mycobacterium kansasii [6]) | MIC (Mycobacterium kansasii [7]) | MIC (Mycobacterium kansasii [8]) | MIC (Mycobacterium kansasii [9]) | MIC (Mycobacterium kansasii [10]) | IC50 (HepG2 [11]) | IC50 (HepG2 [12]) | selectivity ratio [13] | Selectivity Index [14] | MIC (Trichosporon asahii [15]) | MIC (Trichosporon asahii [16]) |
| --- | --- | --- | --- | --- | --- | --- | --- | --- | --- | --- | --- | --- | --- | --- | --- | --- |
| O=C(Oc1ccc(Cl)cc1C(=O)Nc1ccc(C(F)(F)F)cc1)c1ccc(C(F)(F)F)cc1 | 1 µM (≈ 0.488 µg/mL) | 1 µM (≈ 0.488 µg/mL) | 1 µM (≈ 0.488 µg/mL) | 4 µM (≈ 1.95 µg/mL) | 1 µM (≈ 0.488 µg/mL) | 2 µM (≈ 0.976 µg/mL) | 4 µM (≈ 1.95 µg/mL) | 1 µM (≈ 0.488 µg/mL) | 2 µM (≈ 0.976 µg/mL) | 4 µM (≈ 1.95 µg/mL) |  |  |  |  |  |  |
| O=C(Oc1ccc(Br)cc1C(=O)Nc1ccc(C(F)(F)F)cc1)c1ccccc1 | 1 µM (≈ 0.464 µg/mL) | 1 µM (≈ 0.464 µg/mL) | 4 µM (≈ 1.86 µg/mL) | 4 µM (≈ 1.86 µg/mL) | 2 µM (≈ 0.928 µg/mL) | 2 µM (≈ 0.928 µg/mL) | 2 µM (≈ 0.928 µg/mL) | 2 µM (≈ 0.928 µg/mL) | 2 µM (≈ 0.928 µg/mL) | 2 µM (≈ 0.928 µg/mL) |  |  |  |  |  |  |
| O=C(Oc1ccc(Br)cc1C(=O)Nc1ccc(C(F)(F)F)cc1)c1ccc(Br)cc1 | 1 µM (≈ 0.543 µg/mL) | 1 µM (≈ 0.543 µg/mL) | 8 µM (≈ 4.35 µg/mL) | 8 µM (≈ 4.35 µg/mL) | 1 µM (≈ 0.543 µg/mL) | 2 µM (≈ 1.09 µg/mL) | 4 µM (≈ 2.17 µg/mL) | 4 µM (≈ 2.17 µg/mL) | 4 µM (≈ 2.17 µg/mL) | 4 µM (≈ 2.17 µg/mL) | 4200 nM | > 50 µM | > 50 | >6.25 |  |  |
| O=C(Oc1ccc(Cl)cc1C(=O)Nc1ccc(C(F)(F)F)cc1)c1ccccc1 | 0.5 µM (≈ 0.21 µg/mL) | 1 µM (≈ 0.42 µg/mL) | 4 µM (≈ 1.68 µg/mL) | 4 µM (≈ 1.68 µg/mL) | 1 µM (≈ 0.42 µg/mL) | 1 µM (≈ 0.42 µg/mL) | 1 µM (≈ 0.42 µg/mL) | 2 µM (≈ 0.84 µg/mL) | 2 µM (≈ 0.84 µg/mL) | 2 µM (≈ 0.84 µg/mL) |  |  |  |  |  |  |
| Cc1ccc(C(=O)Oc2ccc(Cl)cc2C(=O)Nc2ccc(Cl)c(Cl)c2)cc1 | 1 µM (≈ 0.435 µg/mL) | 1 µM (≈ 0.435 µg/mL) | 8 µM (≈ 3.48 µg/mL) | 8 µM (≈ 3.48 µg/mL) | 1 µM (≈ 0.435 µg/mL) | 2 µM (≈ 0.869 µg/mL) | 2 µM (≈ 0.869 µg/mL) | 2 µM (≈ 0.869 µg/mL) | 4 µM (≈ 1.74 µg/mL) | 4 µM (≈ 1.74 µg/mL) | 2550 nM | > 50 µM | > 50 | >6.25 |  |  |
| O=C(Nc1ccc(Cl)c(Cl)c1)c1cc(Cl)ccc1O | 4 µM (≈ 1.27 µg/mL) | 8 µM (≈ 2.53 µg/mL) | 32 µM (≈ 10.1 µg/mL) | 32 µM (≈ 10.1 µg/mL) | 4 µM (≈ 1.27 µg/mL) | 8 µM (≈ 2.53 µg/mL) | 8 µM (≈ 2.53 µg/mL) | 8 µM (≈ 2.53 µg/mL) | 8 µM (≈ 2.53 µg/mL) | 8 µM (≈ 2.53 µg/mL) |  |  |  |  |  |  |
| O=C(Oc1ccc(Cl)cc1C(=O)Nc1ccc(C(F)(F)F)cc1)c1ccc(Br)cc1 | 1 µM (≈ 0.499 µg/mL) | 1 µM (≈ 0.499 µg/mL) | 4 µM (≈ 1.99 µg/mL) | 4 µM (≈ 1.99 µg/mL) | 0.5 µM (≈ 0.249 µg/mL) | 1 µM (≈ 0.499 µg/mL) | 1 µM (≈ 0.499 µg/mL) | 1 µM (≈ 0.499 µg/mL) | 2 µM (≈ 0.997 µg/mL) | 2 µM (≈ 0.997 µg/mL) | 14500 nM | > 50 µM | > 50 | >12.5 |  |  |
| O=C(Oc1ccc(Cl)cc1C(=O)Nc1ccc(C(F)(F)F)cc1)c1ccc([N+](=O)[O-])cc1 | 0.5 µM (≈ 0.232 µg/mL) | 1 µM (≈ 0.465 µg/mL) | 4 µM (≈ 1.86 µg/mL) | 4 µM (≈ 1.86 µg/mL) | 1 µM (≈ 0.465 µg/mL) | 2 µM (≈ 0.93 µg/mL) | 4 µM (≈ 1.86 µg/mL) | 1 µM (≈ 0.465 µg/mL) | 2 µM (≈ 0.93 µg/mL) | 4 µM (≈ 1.86 µg/mL) | 1150 nM | > 50 µM | > 50 | >12.5 |  |  |
| O=C(Oc1ccc(Cl)cc1C(=O)Nc1ccc(Cl)c(Cl)c1)c1ccc(C(F)(F)F)cc1 | 1 µM (≈ 0.489 µg/mL) | 1 µM (≈ 0.489 µg/mL) | 4 µM (≈ 1.95 µg/mL) | 4 µM (≈ 1.95 µg/mL) | 1 µM (≈ 0.489 µg/mL) | 2 µM (≈ 0.977 µg/mL) | 4 µM (≈ 1.95 µg/mL) | 1 µM (≈ 0.489 µg/mL) | 2 µM (≈ 0.977 µg/mL) | 4 µM (≈ 1.95 µg/mL) |  |  |  |  |  |  |
| O=C(Nc1ccc(C(F)(F)F)cc1)c1cc(Cl)ccc1O | 2 µM (≈ 0.631 µg/mL) | 2 µM (≈ 0.631 µg/mL) | 8 µM (≈ 2.53 µg/mL) | 8 µM (≈ 2.53 µg/mL) | 1 µM (≈ 0.316 µg/mL) | 2 µM (≈ 0.631 µg/mL) | 2 µM (≈ 0.631 µg/mL) | 2 µM (≈ 0.631 µg/mL) | 2 µM (≈ 0.631 µg/mL) | 2 µM (≈ 0.631 µg/mL) |  |  |  |  |  |  |
| Nc1ccc(C(=O)O)c(O)c1 [AMINOSALICYLIC ACID] | 62.5 µM (≈ 9.57 µg/mL) | 62.5 µM (≈ 9.57 µg/mL) | 32 µM (≈ 4.9 µg/mL) | 125 µM (≈ 19.1 µg/mL) | 125 µM (≈ 19.1 µg/mL) | 1000 µM (≈ 153 µg/mL) | > 1000 µM | 32 µM (≈ 4.9 µg/mL) | 125 µM (≈ 19.1 µg/mL) | 500 µM (≈ 76.6 µg/mL) |  |  | 35.8 | <2.2 |  |  |
| O=C(Nc1ccc(C(F)(F)F)cc1)c1cc(Br)ccc1O | 1 µM (≈ 0.36 µg/mL) | 1 µM (≈ 0.36 µg/mL) | 2 µM (≈ 0.72 µg/mL) | 2 µM (≈ 0.72 µg/mL) | 2 µM (≈ 0.72 µg/mL) | 2 µM (≈ 0.72 µg/mL) | 4 µM (≈ 1.44 µg/mL) | 2 µM (≈ 0.72 µg/mL) | 4 µM (≈ 1.44 µg/mL) | 4 µM (≈ 1.44 µg/mL) |  |  |  |  |  |  |
| OC(Cn1cncn1)(Cn1cncn1)c1ccc(F)cc1F [FLUCONAZOLE] |  |  |  |  |  |  |  |  |  |  |  |  |  |  | 4 µM (≈ 1.23 µg/mL) | 9 µM (≈ 2.76 µg/mL) |
| O=C(Oc1ccc(Br)cc1C(=O)Nc1ccc(C(F)(F)F)cc1)c1ccc(C(F)(F)F)cc1 | 1 µM (≈ 0.532 µg/mL) | 1 µM (≈ 0.532 µg/mL) | 2 µM (≈ 1.06 µg/mL) | 4 µM (≈ 2.13 µg/mL) | 1 µM (≈ 0.532 µg/mL) | 2 µM (≈ 1.06 µg/mL) | 4 µM (≈ 2.13 µg/mL) | 1 µM (≈ 0.532 µg/mL) | 2 µM (≈ 1.06 µg/mL) | 4 µM (≈ 2.13 µg/mL) |  |  |  |  |  |  |
| O=C(Oc1ccc(Cl)cc1C(=O)Nc1ccc(Cl)c(Cl)c1)c1ccccc1 | 1 µM (≈ 0.421 µg/mL) | 1 µM (≈ 0.421 µg/mL) | 8 µM (≈ 3.37 µg/mL) | 8 µM (≈ 3.37 µg/mL) | 2 µM (≈ 0.841 µg/mL) | 4 µM (≈ 1.68 µg/mL) | 4 µM (≈ 1.68 µg/mL) | 1 µM (≈ 0.421 µg/mL) | 2 µM (≈ 0.841 µg/mL) | 2 µM (≈ 0.841 µg/mL) |  |  |  |  |  |  |
| O=C(Oc1ccc(Br)cc1C(=O)Nc1ccc(C(F)(F)F)cc1)c1ccc([N+](=O)[O-])cc1 | 0.5 µM (≈ 0.255 µg/mL) | 0.5 µM (≈ 0.255 µg/mL) | 1 µM (≈ 0.509 µg/mL) | 2 µM (≈ 1.02 µg/mL) | 0.5 µM (≈ 0.255 µg/mL) | 1 µM (≈ 0.509 µg/mL) | 1 µM (≈ 0.509 µg/mL) | 0.5 µM (≈ 0.255 µg/mL) | 0.5 µM (≈ 0.255 µg/mL) | 1 µM (≈ 0.509 µg/mL) | 1250 nM | > 50 µM | > 100 | >25 |  |  |
